This is an account of results in ChEMBL document CHEMBL4823254, “Tetrahydroquinoline-Capped Histone Deacetylase 6 Inhibitor SW-101 Ameliorates Pathological Phenotypes in a Charcot-Marie-Tooth Type 2A Mouse Model” (J Med Chem, 2021).

A short description of data set [1]: Protein binding in mouse plasma. Type of data set: ADME, cell-free. The note with it: read-out: PPB (converted).
Data set [2] is described as follows: Genotoxicity in Salmonella typhimurium TA1537 at 5 to 100 uM in absence of liver S9 fraction by Ames test. The class given is toxicity. The note with it: salmonella enterica subsp. enterica serovar typhimurium, s9, 100 µM; dose 5-100 µM. On the technique in general: The Ames test uses bacterial strains that need an amino acid and regain growth without it when mutated back.

The nature of data set [3]: Stability in human pooled liver microsomes assessed as parent compound remaining measured at 60 mins in presence of NADPH by LC-MS/MS analysis. The class given is ADME, Microsome. Particulars: pooled liver microsomes, read-out: Stabilty. On the technique in general: Liver microsomes are a subcellular fraction often used to study metabolism.
Data set [4] concerns Mus musculus. Nature of the data set: Neuroprotective activity in hMFN2-induced CMT2A transgenic mouse model assessed as increase in paw withdrawal threshold at 20 mg/kg, ip qd by von Frey test. Type of data set: functional, organism-based.
A further data set deals with Histone deacetylase 2 (Homo sapiens, UniProt Q92769). Description: Inhibition of recombinant human HDAC2 using Ac-GAK(Ac)-AMC as substrate preincubated for 10 mins followed by substrate addition and measured after 30 mins by fluorescence-based assay.
Chain of Histone deacetylase 2 (Q92769 whole entry): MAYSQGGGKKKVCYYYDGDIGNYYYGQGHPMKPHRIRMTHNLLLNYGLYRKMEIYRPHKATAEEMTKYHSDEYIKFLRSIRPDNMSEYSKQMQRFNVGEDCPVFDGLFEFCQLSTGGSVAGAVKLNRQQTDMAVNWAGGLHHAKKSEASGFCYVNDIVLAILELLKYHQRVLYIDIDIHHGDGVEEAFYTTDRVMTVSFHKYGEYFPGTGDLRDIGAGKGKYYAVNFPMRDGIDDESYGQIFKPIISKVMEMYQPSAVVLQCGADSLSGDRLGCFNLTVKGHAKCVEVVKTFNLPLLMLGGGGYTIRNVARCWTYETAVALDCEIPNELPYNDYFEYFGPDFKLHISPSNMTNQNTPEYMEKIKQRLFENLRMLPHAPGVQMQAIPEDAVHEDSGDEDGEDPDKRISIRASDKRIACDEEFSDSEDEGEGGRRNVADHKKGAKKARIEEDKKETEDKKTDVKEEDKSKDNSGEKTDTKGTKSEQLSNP
A short description of data set [5]: Total AUC (0 to infinity) in C57BL/6J mouse plasma at 15 mg/kg, ip. The class given is ADME, organism-based. On the set-up: route intraperitoneal, time AUCmax, dose 15 mg/kg.
Data set [6] is described as follows: Half life in human plasma. The class given is ADME, cell-free.
The target in data set [7] is T1, Protein deacetylase HDAC6 (Homo sapiens, UniProt Q9UBN7).
T1 sequence (Q9UBN7 whole entry): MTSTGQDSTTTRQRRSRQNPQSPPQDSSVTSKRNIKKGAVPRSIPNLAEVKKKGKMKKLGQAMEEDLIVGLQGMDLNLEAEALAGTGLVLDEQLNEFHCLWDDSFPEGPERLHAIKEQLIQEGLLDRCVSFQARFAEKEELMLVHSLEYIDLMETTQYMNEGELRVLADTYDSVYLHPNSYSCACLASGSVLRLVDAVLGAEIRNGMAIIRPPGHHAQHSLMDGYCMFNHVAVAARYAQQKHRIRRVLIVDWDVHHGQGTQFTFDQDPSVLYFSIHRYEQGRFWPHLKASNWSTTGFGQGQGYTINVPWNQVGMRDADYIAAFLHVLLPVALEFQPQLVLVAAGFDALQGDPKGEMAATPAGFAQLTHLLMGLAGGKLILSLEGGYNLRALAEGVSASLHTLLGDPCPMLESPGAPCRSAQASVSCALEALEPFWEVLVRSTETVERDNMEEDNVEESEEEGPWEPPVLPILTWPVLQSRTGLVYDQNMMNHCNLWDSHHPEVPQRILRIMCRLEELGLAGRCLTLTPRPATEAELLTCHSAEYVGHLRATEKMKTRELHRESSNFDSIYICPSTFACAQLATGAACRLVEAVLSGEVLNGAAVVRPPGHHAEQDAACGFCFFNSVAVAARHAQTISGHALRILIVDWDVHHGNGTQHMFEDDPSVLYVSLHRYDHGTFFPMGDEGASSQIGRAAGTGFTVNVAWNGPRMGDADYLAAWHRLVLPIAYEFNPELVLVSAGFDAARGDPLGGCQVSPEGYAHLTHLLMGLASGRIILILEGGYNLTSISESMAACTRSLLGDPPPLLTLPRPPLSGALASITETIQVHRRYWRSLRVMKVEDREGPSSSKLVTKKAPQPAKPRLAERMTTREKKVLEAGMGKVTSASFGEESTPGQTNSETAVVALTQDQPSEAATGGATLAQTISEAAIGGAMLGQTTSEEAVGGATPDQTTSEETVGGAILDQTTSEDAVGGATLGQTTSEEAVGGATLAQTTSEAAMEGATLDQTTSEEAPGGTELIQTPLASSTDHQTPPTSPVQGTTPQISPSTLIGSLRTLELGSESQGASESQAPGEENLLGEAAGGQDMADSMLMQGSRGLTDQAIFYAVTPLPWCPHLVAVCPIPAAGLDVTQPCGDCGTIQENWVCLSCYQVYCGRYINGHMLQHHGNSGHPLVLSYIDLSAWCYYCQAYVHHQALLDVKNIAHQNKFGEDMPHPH
Description: Inhibition of HDAC6 in human RPMI-8226 cells assessed as increase in tubulin acetylation incubated for 6 hrs by Western blot analysis. The class given is cell-based. Background: Immunoblotting shows a protein as a band on a membrane.

Data set [8] concerns Mus musculus. Description: Neuroprotective activity in hMFN2-induced CMT2A transgenic mouse model assessed as increase in paw withdrawal latency at 20 mg/kg, ip qd by von Frey test. The class given is functional, organism-based.
Data set [9] addresses T2, Protein deacetylase HDAC6 (Mus musculus) (UniProt Q9Z2V5).
T2 sequence (whole entry): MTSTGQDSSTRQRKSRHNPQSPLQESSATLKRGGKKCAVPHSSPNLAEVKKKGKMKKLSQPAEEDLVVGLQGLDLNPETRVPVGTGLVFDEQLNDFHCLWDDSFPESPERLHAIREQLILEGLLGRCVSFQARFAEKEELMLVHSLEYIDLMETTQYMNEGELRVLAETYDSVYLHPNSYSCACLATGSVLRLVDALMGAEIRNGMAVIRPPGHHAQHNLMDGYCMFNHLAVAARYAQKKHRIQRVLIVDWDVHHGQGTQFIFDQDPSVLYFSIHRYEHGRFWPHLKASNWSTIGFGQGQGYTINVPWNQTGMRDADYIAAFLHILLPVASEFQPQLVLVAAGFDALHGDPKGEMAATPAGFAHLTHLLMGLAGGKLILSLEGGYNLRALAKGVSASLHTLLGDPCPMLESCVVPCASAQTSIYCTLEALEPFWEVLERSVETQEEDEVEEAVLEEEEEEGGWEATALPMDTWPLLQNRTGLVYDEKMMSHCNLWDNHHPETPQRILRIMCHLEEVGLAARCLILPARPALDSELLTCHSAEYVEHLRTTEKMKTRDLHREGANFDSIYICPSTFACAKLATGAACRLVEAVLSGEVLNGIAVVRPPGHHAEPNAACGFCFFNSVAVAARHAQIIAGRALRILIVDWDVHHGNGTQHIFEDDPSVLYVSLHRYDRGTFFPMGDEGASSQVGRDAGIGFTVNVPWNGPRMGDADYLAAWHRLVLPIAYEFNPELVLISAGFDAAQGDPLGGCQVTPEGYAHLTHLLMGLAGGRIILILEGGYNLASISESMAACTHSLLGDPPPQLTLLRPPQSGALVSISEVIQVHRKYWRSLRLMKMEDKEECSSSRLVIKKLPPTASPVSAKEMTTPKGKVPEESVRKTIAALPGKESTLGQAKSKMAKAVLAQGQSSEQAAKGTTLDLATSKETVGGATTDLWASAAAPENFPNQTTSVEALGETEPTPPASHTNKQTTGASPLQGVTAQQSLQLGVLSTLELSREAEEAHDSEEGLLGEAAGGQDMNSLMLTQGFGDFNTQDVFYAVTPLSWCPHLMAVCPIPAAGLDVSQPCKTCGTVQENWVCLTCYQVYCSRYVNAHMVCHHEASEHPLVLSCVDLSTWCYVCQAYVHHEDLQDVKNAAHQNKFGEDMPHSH
Description: In vivo inhibition of HDAC6 in wild type mouse assessed as increase in alpha-tubulin acetylation in sciatic nerve tissue at 10 to 20 mg/kg, ip measured after 24 hrs by immunoblot analysis. Type of data set: functional, organism-based. Particulars: dose 10-20 mg/kg.

Data set [10] is described as follows: Unbound AUC (0 to infinity) in C57BL/6J mouse plasma at 15 mg/kg, ip. The class given is ADME, organism-based. Particulars: in vivo.

Active and inactive are the calls of the source.

A word on the IC50: it is the midpoint of a concentration-inhibition curve. One may read the AUC(0-inf) as the area under the concentration-time curve extrapolated to infinity. What is called half-life is the time in which the quantity being followed falls by half. Low values mean fast loss, high ones slow loss. The EC50 is the concentration at which the effect is half-maximal. In the case of `NC(=O)c1ccc2c(c1)CCCN2Cc1ccc(C(=O)NO)cc1`, the fraction unbound in data set [1] is 0.241. Further, the Activity entry in data set [2] is on record as “Non-Toxic”. In data set [3], the remaining at 1 h was found to be 76.3%. The outcome in the data set with Mus musculus [4] and in the data set on Mus musculus [8] was Active. Moreover, the IC50 on Histone deacetylase 2 came out at 140 nM. In data set [5], this compound showed an AUC(0-inf) of 1750 ng·h/mL. In [6], this compound returned a half-life of more than 6.67 h. The EC50 in data set [7] was found to be 140 nM. Besides, the inhibition result in data set [9] is “Active”. This compound also returned a fAUC in [10] of 421 ng·h/mL.
